Experimental data: patent US10981900B2, “Spiro compound and use thereof” (MEDSHINE DISCOVERY INC., priority 2017, dated 2021)
Where two headings read alike, the source gives them in different places.

What was measured:
S1P1 receptor = molecular target: T1, S1P1 receptor (Homo sapiens, UniProt P21453); experiment: S1P1 receptor agonistic activity assay (PathHunter cell strain, chemiluminescent signal detection); assay type: cell-based; details: PathHunter cells, agonist mode, 37° C. for 90-180 minutes
T1 construct: expressed in transfected cells
Method: 1. A PathHunter cell strain was thawed according to standard procedures;
2. The cell was seeded in 20 μl 384-well microplates and incubated at 37° C. for an appropriate time.
1. For an agonist assay, the cell was incubated with the sample to be tested to initiate a reaction;
2. The stock to be tested is diluted 5 folds to be a buffer solution;
3. The 5-fold diluted solution (5 μL) was added to the cells and incubated at 37° C. for 90-180 minutes. The solvent concentration was 1%.
1. 12.5 μL or 15 μL of PathHunter detection reagent (50 vol. %) was added in one portion and then incubated for 1 hour at room temperature to generate a detection signal;
2. The microplate was read using a PerkinElmer Envision™ instrument for chemiluminescent signal detection.
1. Compound activity analysis was performed using a CBIS Data Analysis Kit;
2. Calculation formula: % activity=100%×(average RLU of sample to be test-average RLU of solvents)/(average maximum control ligand−average RLU of solvents)

[1] = Evaluation of compounds' pharmacokinetics in SD rats in vivo (intravenous injection and oral administration); parameters: species or system Sprague Dawley rats; details: single intravenous injection and oral administration; for AUC: read-out: Concentration integral AUC; for half-life: read-out: Half life T1/2 (converted); for bioavailability: oral, read-out: Bioavailability F
Method: Objective: To test the pharmacokinetics of compounds in SD rats in vivo.
Sprague Dawley rats (male, 200-300 g, 7-9 weeks old, Shanghai Slack)
The pharmacokinetics profile of the compound in rodent after intravenous injection and oral administrations was tested using a standard protocol. In the assay, the candidate compound was formulated into a clear solution, and was given to the rats through a single intravenous injection and oral administration. The vehicles for the intravenous injection and oral administration were an aqueous hydroxypropyl β-cyclodextrin solution or dimethyl sulfoxide in aqueous PEG400 solution in a proper proportion. The whole blood samples were collected within 24 hours, centrifuged at 3000 g for 15 minutes, and plasma samples were obtained by separating the supernatant. 4 times volume of acetonitrile solution containing an internal standard was added to precipitate proteins. After centrifugation, the supernatant was collected, to which an equal volume of water was added, and further centrifuged to collect the supernatant. The LC-MS/MS method was used to quantitatively analyze the plasma concentration, and the pharmacokinetics parameters, such as peak concentration, peak time, clearance rate, half-life, area under the curve, and bioavailability were calculated.

[2] = male, Sprague-Dawley, rat, plasma, 3 mg/kg, 3 mpk
[3] = male, Sprague-Dawley, rat, plasma, intravenous, 3 mg/kg, 3 mpk, read-out: Clearance
[4] = male, Sprague-Dawley, rat, plasma, 2 mg/kg, 2 mpk

T1 sequence (P21453 whole entry): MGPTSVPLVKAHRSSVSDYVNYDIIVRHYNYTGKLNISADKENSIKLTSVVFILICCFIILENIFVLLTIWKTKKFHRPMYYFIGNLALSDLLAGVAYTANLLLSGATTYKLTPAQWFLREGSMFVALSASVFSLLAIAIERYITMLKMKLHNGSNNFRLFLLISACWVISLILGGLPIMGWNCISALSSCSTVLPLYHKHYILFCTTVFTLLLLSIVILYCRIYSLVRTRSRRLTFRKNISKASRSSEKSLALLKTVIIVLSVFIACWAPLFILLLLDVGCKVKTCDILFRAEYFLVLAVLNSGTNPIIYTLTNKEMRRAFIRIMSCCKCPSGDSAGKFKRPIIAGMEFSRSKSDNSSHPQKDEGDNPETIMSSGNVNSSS

| SMILES | EC50 (S1P1 receptor) | further results |
| --- | --- | --- |
| CC(C)Oc1ccc(-c2nc(-c3cccc4c3CCC43CC(=O)N(CCO)C3)no2)cc1C#N (single isomer, unassigned) [Example 21 isomer 1] | ≤ 10 nM | AUC [1, 2]: 12.6 µM·h; half-life [1, 2]: 181 min; clearance [1, 3]: 8.65 mL/min/kg; bioavailability [1, 2]: 100% |
| CC(C)Oc1ccc(-c2nc(-c3cccc4c3CCC43CC(=O)N(CCO)C3)no2)cc1C#N (single isomer, unassigned) [Example 21 isomer 2] |  | Bioavailability F ([1]; 3 mpk, 3 mg/kg): 89.6%; Concentration integral AUC ([1]; 3 mpk, 3 mg/kg): 8.483 µM·h; Half life T1/2 ([1]; 3 mpk, 3 mg/kg): 3.22 h; clearance ([1]; 3 mpk, 3 mg/kg): 11.6 mL/min/kg |
| CC(C)Oc1ccc(-c2nc(-c3cccc4c3CCC43CCN(C4CC(C(=O)O)C4)C3)no2)cc1C#N (single isomer, unassigned) [Example 47 Isomer 3] |  | Bioavailability F ([1]; 3 mpk, 3 mg/kg): 48.7%; AUC [1, 2]: 5.66 µM·h; half-life [1, 2]: 239 min; clearance [1, 3]: 8.81 mL/min/kg |
| CC(C)Oc1ccc(-c2nc(-c3cccc4c3CCC43CCN(C4CC(C(=O)O)C4)C3)no2)cc1C#N (single isomer, unassigned) [Example 47 Isomer 4] |  | Bioavailability F ([1]; 3 mpk, 3 mg/kg): 89.6%; Concentration integral AUC ([1]; 3 mpk, 3 mg/kg): 8.483 µM·h; Half life T1/2 ([1]; 3 mpk, 3 mg/kg): 3.22 h; clearance ([1]; 3 mpk, 3 mg/kg): 11.6 mL/min/kg |
| O=C1CC2(CCc3c(-c4noc(-c5ccc(Cl)cc5)n4)cccc32)CN1CCO (stereo not drawn) [Example 1] | > 100 nM |  |
| O=C1CC2(CCc3c(-c4noc(-c5cccc(Cl)c5)n4)cccc32)CN1CCO (stereo not drawn) [Example 2] | > 100 nM |  |
| O=C1CC2(CCc3c(-c4noc(-c5ccccc5Cl)n4)cccc32)CN1CCO (stereo not drawn) [Example 3] | > 100 nM |  |
| COc1ccc(-c2nc(-c3cccc4c3CCC43CC(=O)N(CCO)C3)no2)cc1 (stereo not drawn) [Example 4] | > 100 nM |  |
| COc1cccc(-c2nc(-c3cccc4c3CCC43CC(=O)N(CCO)C3)no2)c1 (stereo not drawn) [Example 5] | > 100 nM |  |
| COc1ccccc1-c1nc(-c2cccc3c2CCC32CC(=O)N(CCO)C2)no1 (stereo not drawn) [Example 6] | > 100 nM |  |
| N#Cc1ccc(-c2nc(-c3cccc4c3CCC43CC(=O)N(CCO)C3)no2)cc1 (stereo not drawn) [Example 7] | > 100 nM |  |
| N#Cc1cccc(-c2nc(-c3cccc4c3CCC43CC(=O)N(CCO)C3)no2)c1 (stereo not drawn) [Example 8] | > 100 nM |  |
| CC(C)Oc1ccc(-c2nc(-c3cccc4c3CCC43CC(=O)N(CCO)C3)no2)cc1C(F)F (stereo not drawn) [Example 9] | ≤ 10 nM | AUC [1, 4]: 4.35 µM·h; half-life [1, 4]: 5960 min; clearance ([1]; male, Sprague-Dawley, rat, plasma, intravenous, 2 mg/kg, 2 mpk, read-out: Clearance): 2.52 mL/min/kg; bioavailability [1, 4]: 89.4% |
| CC(C)Oc1ccc(-c2nc(-c3cccc4c3CCC43CC(=O)N(CCO)C3)no2)cc1OC(F)F (stereo not drawn) [Example 10] | ≤ 10 nM |  |
| CC(C)Oc1ccc(-c2nc(-c3cccc4c3CCC43CC(=O)N(CCO)C3)no2)cc1Cl (stereo not drawn) [Example 11] | ≤ 10 nM |  |
| CC(C)Oc1ccc(-c2nc(-c3cccc4c3CCC43CC(=O)N(CCO)C3)no2)c(C#N)c1 (stereo not drawn) [Example 12] | > 100 nM |  |
| CC(C)Oc1ccc(-c2nc(-c3cccc4c3CCC43CC(=O)N(CCO)C3)no2)cc1 (stereo not drawn) [Example 13] | > 100 nM |  |
| O=C1CC2(CCc3c(-c4noc(-c5ccc(OC(F)(F)F)cc5)n4)cccc32)CN1CCO (stereo not drawn) [Example 14] | > 100 nM |  |
| O=C1CC2(CCc3c(-c4noc(-c5ccc(OC(F)F)cc5)n4)cccc32)CN1CCO (stereo not drawn) [Example 15] | > 100 nM |  |
| Cc1ccc(-c2nc(-c3cccc4c3CCC43CC(=O)N(CCO)C3)no2)cc1 (stereo not drawn) [Example 16] | > 100 nM |  |
| CC(C)c1ccc(-c2nc(-c3cccc4c3CCC43CC(=O)N(CCO)C3)no2)cc1 (stereo not drawn) [Example 17] | > 100 nM |  |
| N#Cc1ccccc1-c1nc(-c2cccc3c2CCC32CC(=O)N(CCO)C2)no1 (stereo not drawn) [Example 18] | > 100 nM |  |
| O=C1CC2(CCc3c(-c4noc(-c5ccc(OCC6CC6)cc5)n4)cccc32)CN1CCO (stereo not drawn) [Example 19] | > 100 nM |  |
| CC(C)Nc1ncc(-c2nc(-c3cccc4c3CCC43CC(=O)N(CCO)C3)no2)cc1Br (stereo not drawn) [Example 20] | 10 to 100 nM |  |
| CC(C)Oc1ccc(-c2nc(-c3cccc4c3CCC43CC(=O)N(CCO)C3)no2)cc1C#N (stereo not drawn) [Example 21 mixture] | ≤ 10 nM |  |
| CC(C)Oc1ccc(-c2nc(-c3cccc4c3CCC43CC(=O)N(CCO)C3)no2)cc1Br (stereo not drawn) [Example 22] | ≤ 10 nM |  |

| SMILES | EC50 (S1P1 receptor) | further results |
| --- | --- | --- |
| CC(C)Oc1ccc(-c2nc(-c3cccc4c3CCC43CC(=O)N(CCO)C3)no2)cc1S(C)(=O)=O (stereo not drawn) [Example 23] | 10 to 100 nM |  |
| COCCN1CC2(CCc3c(-c4noc(-c5ccc(OC(C)C)c(C#N)c5)n4)cccc32)CC1=O (stereo not drawn) [Example 24] | ≤ 10 nM |  |
| CC(C)Oc1ccc(-c2nc(-c3cccc4c3CCC43CC(=O)N(CCS(C)(=O)=O)C3)no2)cc1C#N (stereo not drawn) [Example 25] | ≤ 10 nM |  |
| CC(C)Oc1ccc(-c2nc(-c3cccc4c3CCC43CC(=O)N(CC(=O)N(C)C)C3)no2)cc1C#N (stereo not drawn) [Example 26] | ≤ 10 nM |  |
| CC(C)Oc1ccc(-c2nc(-c3cccc4c3CCC43CC(=O)N(CCN(C)C)C3)no2)cc1C#N (stereo not drawn) [Example 27] | 10 to 100 nM |  |
| CC(C)Oc1ccc(-c2nc(-c3cccc4c3CCC43CC(=O)N(CC(=O)O)C3)no2)cc1C#N (stereo not drawn) [Example 28] | ≤ 10 nM |  |
| CC(C)Oc1ccc(-c2nc(-c3cccc4c3CCC43CC(=O)N(CCCCC(=O)O)C3)no2)cc1C#N (stereo not drawn) [Example 29] | ≤ 10 nM |  |
| CC(C)Oc1ccc(-c2nc(-c3cccc4c3CCC43CCN(CCO)C3=O)no2)cc1C#N (stereo not drawn) [Example 30] | 10 to 100 nM |  |
| CC(C)Oc1ccc(-c2nc(-c3cccc4c3CCC43CCC(=O)N3CCO)no2)cc1C#N (stereo not drawn) [Example 31] | 10 to 100 nM |  |
| CC(C)Oc1ccc(-c2nc(-c3cccc4c3CCC43CCC(CO)N3)no2)cc1C#N (stereo not drawn) [Example 32] | 10 to 100 nM |  |
| CC(C)Oc1ccc(-c2nc(-c3cccc4c3CCCC43CC(=O)N(CCO)C3)no2)cc1C#N (stereo not drawn) [Example 33] | ≤ 10 nM |  |
| CC(C)Oc1ccc(-c2nc(-c3cccc4c3CCC43CCC(=O)N(CCO)C3)no2)cc1C#N (stereo not drawn) [Example 34] | ≤ 10 nM |  |
| CC(C)Oc1ccc(-c2nc(-c3cccc4c3CCC43CCN(CCO)C3)no2)cc1C#N (stereo not drawn) [Example 35] | ≤ 10 nM |  |
| CC(C)Oc1ccc(-c2nc(-c3cccc4c3CCC43CC(=O)N(CCO)C3=O)no2)cc1C#N (stereo not drawn) [Example 36] | ≤ 10 nM |  |
| CC(C)Oc1ccc(-c2nc(-c3cccc4c3CCC43COC(=O)N3CCO)no2)cc1C#N (stereo not drawn) [Example 37] | 10 to 100 nM |  |
| CC(C)Oc1ccc(-c2nnc(-c3cccc4c3CCC43CC(=O)N(CCO)C3)s2)cc1C#N (stereo not drawn) [Example 38] | ≤ 10 nM |  |
| CC(C)Oc1ccc(-c2nsc(-c3cccc4c3CCC43CC(=O)N(CCO)C3)n2)cc1C#N (stereo not drawn) [Example 39] | 10 to 100 nM |  |
| CC(C)Oc1ccc(-c2nc(-c3cccc4c3CCC43CC(=O)N(CCO)C3)ns2)cc1C#N (stereo not drawn) [Example 40] | ≤ 10 nM |  |
| CC(C)Oc1ccc(-c2ncc(-c3cccc4c3CCC43CC(=O)N(CCO)C3)s2)cc1C#N (stereo not drawn) [Example 41] | ≤ 10 nM |  |
| CC(C)Oc1ccc(-c2ncc(-c3cccc4c3CCC43CC(=O)N(CCO)C3)o2)cc1C#N (stereo not drawn) [Example 42] | 10 to 100 nM |  |
| CC(C)Oc1ccc(-c2ccc(-c3cccc4c3CCC43CC(=O)N(CCO)C3)s2)cc1C#N (stereo not drawn) [Example 43] | 10 to 100 nM |  |
| CC(C)Oc1ccc(-c2ncc(-c3cccc4c3CCC43CC(=O)N(CCO)C3)cn2)cc1C#N (stereo not drawn) [Example 44] | ≤ 10 nM |  |
| CC(C)Oc1ccc(-c2cnc(-c3cccc4c3CCC43CC(=O)N(CCO)C3)cn2)cc1C#N (stereo not drawn) [Example 45] | ≤ 10 nM |  |
| CC(C)Oc1ccc(-c2nc(-c3cccc4c3CCC43CCN(C4CC(C(=O)O)C4)C3)no2)cc1C#N (stereo not drawn) [Example 47] | ≤ 10 nM |  |
| CC(C)Oc1ccc(-c2nc(-c3cccc4c3CCC43CCN(CC(=O)O)C3)no2)cc1C#N (stereo not drawn) [Example 48] | ≤ 10 nM |  |
| CC(C)Oc1ccc(-c2nc(-c3cccc4c3CC[C@@H]4NCCO)no2)cc1C#N [Ozanimod, reference compound] |  | AUC [1, 2]: 1.12 µM·h; half-life [1, 2]: 314 min; clearance [1, 3]: 46.3 mL/min/kg; bioavailability [1, 2]: 41.6% |
